Experiments:
Format in all cases: in vivo
[1] = tested on: beet armyworm (Spodoptera exigua); experiment: Insecticidal test for beet armyworm, treated lepidopteran diet; conditions: 2nd instar larvae on treated diet, 5 days; for pest or weed control at 400 ppm: Spodoptera exigua, 120 h, read-out: BAW: activity against beet armyworm (% Control rating)
Method: (§1) Insecticidal test for tobacco budworm (Heliothis virescens), beet armyworm (Spodoptera exigua), and cabbage looper (Trichoplusia ni). To prepare test solution, the test compound was formulated at 400 ppm in 7.5 mL of 2 acetone:1 tap water. 250 μL of the test solution was pipetted upon the surface of 8 mL of lepidopteran diet (modified Shorey) contained in each of five one-ounce plastic cups (one cup=1 replication). […] After air-drying, the treated leaf discs were placed individually into one-ounce plastic cups. Each dried, treated cotton cotyledon disc was infested with a 2nd instar tobacco budworm larva, and each cabbage leaf disc was infested with a 2nd instar cabbage looper larva. Cups containing the treated substrates and larvae were capped and then held in a growth chamber at 25° C., 50-55% RH, and 14 hr light:10 hr dark for 5 days.

[2] = tested on: cabbage looper (Trichoplusia ni); experiment: Insecticidal test for cabbage looper, treated cabbage leaf disc; conditions: 2nd instar larvae on dipped cabbage leaf discs, 5 days; for pest or weed control at 400 ppm: Trichoplusia ni, foliar, 120 h, read-out: CL: activity against cabbage looper (% Control rating)
Method: as §1

[3] = tested on: two-spotted spider mite (Tetranychus urticae); experiment: Insecticidal test for two-spotted spider mite, ovicide method; conditions: ovicide method on cotton leaf discs, 6 days; for pest or weed control at 2.5 ppm: Tetranychus urticae, foliar, 144 h, read-out: SM: activity against two-spotted spider mite (% Control rating)
Method: Insecticidal test for two-spotted spider mite (Tetranychus urticae) Ovicide Method: Ten adult female two-spotted spider mites were placed on eight 2.2 cm leaf discs of cotton leaf, allowed to oviposit over 24 hours, and thereafter removed. […] Discs were placed on an agar substrate and held at 24° C. and 90% RH for 6 days.

[4] = tested on: Sweetpotato Whitefly (Bemisia tabacia); experiment: Insecticidal test for Sweetpotato Whitefly, sprayed cotton plants; conditions: 200 ppm spray, large nymphs counted after 13 days
Method: Insecticidal test for Sweetpotato Whitefly (Bemisia tabacia) Four mg of each test compound were dissolved by adding 4 mL of a 90:10 acetone:ethanol solvent mixture to the vial containing the sample compound. This solution was added to 16 mL of water containing 0.05% Tween 20 surfactant to produce 20 mL of a 200 ppm spray solution. Five-week-old cotton plants reared in a greenhouse were stripped of all foliage except for the two uppermost true leaves that were greater than 5 cm in diameter. These plants were then placed into a laboratory colony of whiteflies for two days for oviposition by the colony females. All whiteflies were then removed from the test plants with pressurized air. The spray solution was then applied to the test plants with a hand-held syringe fitted with hollow cone nozzle. One mL spray solution was applied to each leaf top and bottom for a total of 4 mL per plant. Four replications of each test compound utilized a total of 16 mL spray solution. Plants were air dried and then placed in a holding chamber (28° C. and 60% RH) for 13 days. Compound efficacy was evaluated by counting, under an illuminated magnifying glass, the number of large nymphs (3rd-4th instar) per leaf. Percent control based on reduction of large nymphs of a test compound compared to solution-only (no test compound) sprayed plants is reported in Table 1-8.

[5] = tested on: tobacco budworm (Heliothis virescens); experiment: Insecticidal test for tobacco budworm, treated cotton cotyledon leaf disc; conditions: 2nd instar larvae on dipped cotton cotyledon discs, 5 days; for pest or weed control at 400 ppm: Heliothis virescens, foliar, 120 h, read-out: TBW: activity against tobacco budworm (% Control rating)
Method: as §1

[6] = tested on: cotton aphid (Aphis gossypii); experiment: Insecticidal test for cotton aphid, sprayed squash cotyledons; conditions: 50 ppm spray, graded after 3 days
Method: Insecticidal test for cotton aphid (Aphis gossypii) To prepare spray solutions, 1 mg of each test compound was dissolved into 1 mL of a 90:10 acetone:ethanol solvent. This 1 mL of chemical solution was added to 19 mL of water containing 0.05% Tween 20 surfactant to produce a 50 ppm spray solution. Squash cotyledons were infested with cotton aphid (all life stages) 16-20 hours prior to application of spray solution. The solution was sprayed on both sides of each infested squash cotyledon (0.5 mL×2 each side) with a sweeping action until runoff. The plants were allowed to air dry and held for 3 days in a controlled room at 26° C. and 40% RH after which time the test was graded. Grading was by actual count using a dissecting microscope and comparison of test counts to the untreated check.

Compound | pest or weed control at 400 ppm [1] | pest or weed control at 400 ppm [2] | pest or weed control at 2.5 ppm [3] | pest or weed control at 400 ppm [5] | further results
C[C@@H]1OC(c2c(F)cccc2F)=N[C@@H]1c1ccc(-c2ccc(C(F)(F)F)cc2)cc1 (mixture of isomers) [Compound 5, (4R,5S)- and 4S,5R)-2-(2,6-difluorophenyl)-5-methyl-4-[4′-(trifluoromethyl)-1,1′-biphenyl-4-yl]-4,5-dihydro-1,3-oxazole] | 90 to 100% | 90 to 100% | 90 to 100% | – | –
C[C@H]1OC(c2c(F)cccc2F)=N[C@H]1c1ccc(-c2ccc(OC(F)(F)F)cc2)cc1 (racemic) [Compound 6, (4S,5R)- and (4R,5S)-2-(2,6-difluorophenyl)-4-(4′-trifluoromethoxy-1,1′-biphenyl-4-yl)-5-methyl-4,5-dihydro-1,3-oxazole] | – | – | – | – | WF: activity against whitefly (% Control rating) [4]: B (80-89)
Cc1ccc(-c2ccc([C@@H]3N=C(c4c(F)cccc4F)O[C@@H]3C)cc2)cc1C (racemic) [Compound 8, (4S,5R)- and (4R,5S)-2-(2,6-difluorophenyl)-4-(3′,4′-dimethyl-1,1′-biphenyl-4-yl)-5-methyl-4,5-dihydro-1,3-oxazole] | 90 to 100% | 90 to 100% | – | 60 to 69% | –
CCOc1ccc(-c2ccc([C@H]3N=C(c4c(F)cccc4F)O[C@H]3C)cc2)cc1 (racemic) [Compound 12, (4R,5S)- and (4S,5R)-2-(2,6-difluorophenyl)-4-(4′-ethoxy-1,1′-biphenyl-4-yl)-5-methyl-4,5-dihydro-1,3-oxazole] | 90 to 100% | 90 to 100% | – | 80 to 89% | –
C[C@H]1OC(c2c(F)cccc2F)=NC1c1ccc(-c2ccc3c(c2)OC(F)(F)O3)cc1 (mixture of isomers) [Compound 13, (4R,5S)- and (4S,5R)-4-[4-(2,2-difluoro-1,3-benzodioxol-5-yl)phenyl]-2-(2,6-difluorophenyl)-5-methyl-4,5-dihydro-1,3-oxazole] | – | 90 to 100% | – | < 50% | –
C[C@@H]1OC(c2c(F)cccc2F)=N[C@@H]1c1ccc(-c2ccccc2F)cc1 (racemic) [Compound 15, (4R,5S)- and (4S,5R)-2-(2,6-difluorophenyl)-4-(2′-fluoro-1,1′-biphenyl-4-yl)-5-methyl-4,5-dihydro-1,3-oxazole] | – | 90 to 100% | – | – | –
Cc1ccccc1C1=N[C@H](c2ccc(Br)cc2)[C@H](C)O1 (racemic) [Compound 17, (4R,5S)- and (4S,5R)-4-(4-bromophenyl)-2-(2-methyl)-5-methyl-4,5-dihydro-1,3-oxazole] | – | < 50% | – | < 50% | –
C[C@H]1OC(c2c(F)cccc2F)=N[C@@H]1c1ccc(I)cc1 (racemic) [Compound 22, (4R,5R)- and (4S,5S)-4-(4-iodophenyl)-2-(2,6-difluorophenyl)-5-methyl-4,5-dihydro-1,3-oxazole] | – | – | 90 to 100% | – | CA: activity against cotton aphid (% Control rating) [6]: A (90-100)
C[C@H]1OC(c2c(F)cccc2Cl)=N[C@@H]1c1ccc(Br)cc1 (racemic) [Compound 23, (4R,5R)- and (4S,5S)-4-(4-bromophenyl)-2-(2-chloro-6-fluorophenyl)-5-methyl-4,5-dihydro-1,3-oxazole] | – | < 50% | 90 to 100% | 80 to 89% | –
C[C@@H]1OC(c2c(F)cccc2F)=N[C@H]1c1ccc(-c2ccc(C(F)(F)F)cc2)cc1 (racemic) [Compound 26, (4S,5S)- and (4R,5R)-2-(2,6-difluorophenyl)-5-methyl-4-[4′-(trifluoromethyl)-1,1′-biphenyl-4-yl]-4,5-dihydro-1,3-oxazole] | 90 to 100% | 90 to 100% | 90 to 100% | – | –
C[C@H]1OC(c2c(F)cccc2F)=N[C@@H]1c1ccc(-c2ccc(OC(F)(F)F)cc2)cc1 (racemic) [Compound 27, (4R,5R)- and (4S,5S)-2-(2,6-difluorophenyl)-4-(4′-trifluoromethoxy-1,1′-biphenyl-4-yl)-5-methyl-4,5-dihydro-1,3-oxazole] | – | – | – | – | BAW: activity against beet armyworm (% Control rating) ([1]; 400 ppm): A (90-100); CL: activity against cabbage looper (% Control rating) ([2]; 400 ppm): A (90-100); TBW: activity against tobacco budworm (% Control rating) ([5]; 400 ppm): B (80-89); SM: activity against two-spotted spider mite (% Control rating) ([3]; 2.5 ppm): A (90-100)
Cc1ccc(-c2ccc([C@@H]3N=C(c4c(F)cccc4F)O[C@H]3C)cc2)cc1C (racemic) [Compound 29, (4S,5S)- and (4R,5R)-2-(2,6-difluorophenyl)-4-(3′,4′-dimethyl-1,1′-biphenyl-4-yl)-5-methyl-4,5-dihydro-1,3-oxazole] | – | 90 to 100% | – | – | –
C[C@@H]1OC(c2c(F)cccc2F)=N[C@H]1c1ccc(-c2ccccc2F)cc1 (racemic) [Compound 31, (4S,5S)- and (4R,5R)-2-(2,6-difluorophenyl)-4-(2′-fluoro-1,1′-biphenyl-4-yl)-5-methyl-4,5-dihydro-1,3-oxazole] | – | 90 to 100% | – | – | –
CCOc1ccc(-c2ccc([C@@H]3N=C(c4c(F)cccc4F)O[C@H]3C)cc2)cc1 (racemic) [Compound 33, (4S,5S)- and (4R,5R)-2-(2,6-difluorophenyl)-4-(4′-ethoxy-1,1′-biphenyl-4-yl)-5-methyl-4,5-dihydro-1,3-oxazole] | 90 to 100% | 90 to 100% | – | 80 to 89% | –
C[C@H]1OC(c2c(F)cccc2F)=N[C@@H]1c1ccccc1 (racemic) [Compound 35, (4R,5R)- and (4S,5S)-4-phenyl-2-(2,6-difluorophenyl)-5-methyl-4,5-dihydro-1,3-oxazole] | – | < 50% | – | < 50% | –
C[C@H]1OC(c2c(F)cccc2F)=N[C@H]1c1ccc(-c2ccc(OC(F)(F)F)cc2)cc1 (stereo in doubt) [Compound 49, (4S,5R)-2-(2,6-difluorophenyl)-5-methyl-4-[4′-(trifluoromethoxy)-1,1′-biphenyl-4-yl]-4,5-dihydro-1,3-oxazole] | 90 to 100% | 90 to 100% | 90 to 100% | 80 to 89% | pest or weed control at 200 ppm ([4]; Bemisia, 312 h, read-out: WF: activity against whitefly (% Control rating)): 80 to 89%
C[C@@H]1OC(c2c(F)cccc2F)=N[C@@H]1c1ccc(-c2ccc(OC(F)(F)F)cc2)cc1 (stereo in doubt) [Compound 51, (4R,5S)-2-(2,6-difluorophenyl)-5-methyl-4-[4′-(trifluoromethoxy)-1,1′-biphenyl-4-yl]-4,5-dihydro-1,3-oxazole] | 90 to 100% | 90 to 100% | 90 to 100% | 80 to 89% | CA: activity against cotton aphid (% Control rating) [6]: F (less than 50)
C[C@@H]1OC(c2c(F)cccc2F)=N[C@H]1c1ccc(-c2ccc(OC(F)(F)F)cc2)cc1 [Compound 47, (4S,5S)-2-(2,6-difluorophenyl)-5-methyl-4-[4′-(trifluoromethoxy)-1,1′-biphenyl-4-yl]-4,5-dihydro-1,3-oxazole] | 90 to 100% | 90 to 100% | 90 to 100% | – | –
C[C@H]1OC(c2c(F)cccc2F)=N[C@@H]1c1ccc(-c2ccc(OC(F)(F)F)cc2)cc1 [Compound 53, (4R,5R)-2-(2,6-difluorophenyl)-5-methyl-4-[4′-(trifluoromethoxy)-1,1′-biphenyl-4-yl]-4,5-dihydro-1,3-oxazole] | 90 to 100% | 90 to 100% | 90 to 100% | – | –
